Measured values reported in ChEMBL document CHEMBL1201862, “PubChem BioAssay data set” (2004).
Activity calls are given as the source filed them.

Legend:
[1] = tested on: Vero; test: viability loss in Vero cells – cell-based, plate reader, cherry-pick samples, cytotoxicity control, dose response (AID 687020); type: functional; conditions: Chlorocebus sabaeus
[2] = target: T1, Heat shock factor protein 1 (Mus musculus, UniProt P38532); test: decrease of HSF1-responsive luciferase luminescence – cell-based, NIH3T3, dose retest, confirmation (AID 2382); type: functional;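 further: NIH3T3 fibroblasts with HSF1-driven luciferase reporter stressed by proteasome inhibitor MG132; luminescence from HSF1-driven luciferase expression after 8 hours of MG132 stress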
T1 sequence (P38532 whole entry): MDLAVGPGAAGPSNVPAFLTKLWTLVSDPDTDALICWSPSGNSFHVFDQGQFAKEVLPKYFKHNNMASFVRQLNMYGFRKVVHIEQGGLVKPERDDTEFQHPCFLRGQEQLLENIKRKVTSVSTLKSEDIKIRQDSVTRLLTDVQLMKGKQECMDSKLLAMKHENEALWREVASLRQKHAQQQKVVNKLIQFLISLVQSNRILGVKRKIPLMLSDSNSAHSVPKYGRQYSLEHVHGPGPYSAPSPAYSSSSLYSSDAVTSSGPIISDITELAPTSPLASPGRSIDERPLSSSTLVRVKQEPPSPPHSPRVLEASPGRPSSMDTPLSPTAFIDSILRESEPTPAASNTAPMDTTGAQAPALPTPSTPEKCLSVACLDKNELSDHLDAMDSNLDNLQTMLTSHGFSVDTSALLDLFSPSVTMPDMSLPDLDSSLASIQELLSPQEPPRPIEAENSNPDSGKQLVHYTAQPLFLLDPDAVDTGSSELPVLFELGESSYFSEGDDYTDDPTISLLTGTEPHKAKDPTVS

[3] = cells; type: functional, cell-based
[4] = cells; type: functional, cell-based; remark: listed apart in the source
[5] = target: T2, Histone-lysine N-methyltransferase NSD2 (Homo sapiens, UniProt O96028); type: biochemical
T2 sequence (O96028 whole entry): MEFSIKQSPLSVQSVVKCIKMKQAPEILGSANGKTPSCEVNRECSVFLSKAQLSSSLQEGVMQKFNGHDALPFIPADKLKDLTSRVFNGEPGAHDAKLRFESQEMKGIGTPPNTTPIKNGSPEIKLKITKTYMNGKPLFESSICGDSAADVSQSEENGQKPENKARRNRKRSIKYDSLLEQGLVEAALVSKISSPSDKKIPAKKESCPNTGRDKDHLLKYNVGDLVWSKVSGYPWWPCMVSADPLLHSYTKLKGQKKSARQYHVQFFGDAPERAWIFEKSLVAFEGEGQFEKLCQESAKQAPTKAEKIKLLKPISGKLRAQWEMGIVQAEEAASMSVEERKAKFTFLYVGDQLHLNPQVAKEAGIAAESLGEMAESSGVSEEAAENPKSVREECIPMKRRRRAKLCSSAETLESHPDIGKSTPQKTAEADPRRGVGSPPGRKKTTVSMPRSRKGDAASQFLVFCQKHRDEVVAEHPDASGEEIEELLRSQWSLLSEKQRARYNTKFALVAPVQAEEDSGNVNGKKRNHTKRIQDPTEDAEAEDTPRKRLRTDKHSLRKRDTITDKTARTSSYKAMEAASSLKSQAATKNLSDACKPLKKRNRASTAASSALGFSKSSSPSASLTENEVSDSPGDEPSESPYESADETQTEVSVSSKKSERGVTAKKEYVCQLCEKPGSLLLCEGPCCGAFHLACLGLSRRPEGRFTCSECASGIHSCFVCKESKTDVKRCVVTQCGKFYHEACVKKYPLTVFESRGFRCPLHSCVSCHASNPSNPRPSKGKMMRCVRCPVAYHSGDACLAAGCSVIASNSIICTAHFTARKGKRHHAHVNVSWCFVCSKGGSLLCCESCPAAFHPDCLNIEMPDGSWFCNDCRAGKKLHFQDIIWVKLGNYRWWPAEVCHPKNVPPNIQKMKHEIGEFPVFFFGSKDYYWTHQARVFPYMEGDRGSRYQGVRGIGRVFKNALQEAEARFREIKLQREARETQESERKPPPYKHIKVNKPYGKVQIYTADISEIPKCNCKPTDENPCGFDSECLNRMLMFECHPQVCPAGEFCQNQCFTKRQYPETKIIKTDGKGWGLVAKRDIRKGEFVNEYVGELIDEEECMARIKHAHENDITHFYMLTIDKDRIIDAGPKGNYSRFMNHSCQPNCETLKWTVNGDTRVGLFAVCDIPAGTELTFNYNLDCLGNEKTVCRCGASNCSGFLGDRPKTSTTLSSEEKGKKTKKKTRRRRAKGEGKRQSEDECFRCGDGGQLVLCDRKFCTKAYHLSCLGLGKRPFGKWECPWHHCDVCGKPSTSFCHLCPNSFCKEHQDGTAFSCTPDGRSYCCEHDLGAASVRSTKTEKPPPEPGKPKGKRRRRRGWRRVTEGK

[6] = target: T3, Rac GTPase-activating protein 1 (Homo sapiens, UniProt Q9H0H5); test: blockers of MgcRacGAP-driven Rac1 GTP hydrolysis – biochemical, ADP Hunter fluorescence, primary and confirmatory, confirmation (AID 624330); type: functional
T3 sequence (Q9H0H5 whole entry): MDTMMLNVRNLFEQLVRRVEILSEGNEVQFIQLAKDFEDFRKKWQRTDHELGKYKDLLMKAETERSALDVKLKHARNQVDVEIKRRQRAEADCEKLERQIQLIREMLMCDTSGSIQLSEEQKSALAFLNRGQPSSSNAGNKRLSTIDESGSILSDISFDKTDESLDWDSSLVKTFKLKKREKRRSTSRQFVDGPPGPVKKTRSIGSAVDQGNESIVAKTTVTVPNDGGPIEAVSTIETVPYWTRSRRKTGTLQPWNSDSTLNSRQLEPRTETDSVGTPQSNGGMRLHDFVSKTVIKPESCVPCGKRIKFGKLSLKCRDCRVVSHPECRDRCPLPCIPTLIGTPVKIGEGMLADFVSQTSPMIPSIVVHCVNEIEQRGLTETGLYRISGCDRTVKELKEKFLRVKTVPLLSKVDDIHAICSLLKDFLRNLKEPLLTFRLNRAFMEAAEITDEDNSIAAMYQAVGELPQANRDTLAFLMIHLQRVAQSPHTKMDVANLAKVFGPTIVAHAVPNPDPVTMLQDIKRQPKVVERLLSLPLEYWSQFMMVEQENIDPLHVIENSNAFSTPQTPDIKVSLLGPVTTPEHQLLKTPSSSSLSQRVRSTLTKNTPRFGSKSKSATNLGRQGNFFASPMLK

[7] = target: Large T antigen (Simian virus 40, UniProt P03070); type: functional, Betapolyomavirus macacae;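 further: Confirmatory-stage PubChem screen for compounds that inhibit SV40 T antigen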
[8] = viability loss in HeLa cells – cytotoxicity control for MgcRacGAP inhibitor project, dose response (AID 624300); type: functional
[9] = target: T4, Mannose-6-phosphate isomerase (Homo sapiens, UniProt P34949); test: MPI inhibition at elevated mannose 6-phosphate – biochemical, fluorescence intensity, high mannose 6-phosphate, primary screen (AID 1220)
T4 sequence (P34949 whole entry): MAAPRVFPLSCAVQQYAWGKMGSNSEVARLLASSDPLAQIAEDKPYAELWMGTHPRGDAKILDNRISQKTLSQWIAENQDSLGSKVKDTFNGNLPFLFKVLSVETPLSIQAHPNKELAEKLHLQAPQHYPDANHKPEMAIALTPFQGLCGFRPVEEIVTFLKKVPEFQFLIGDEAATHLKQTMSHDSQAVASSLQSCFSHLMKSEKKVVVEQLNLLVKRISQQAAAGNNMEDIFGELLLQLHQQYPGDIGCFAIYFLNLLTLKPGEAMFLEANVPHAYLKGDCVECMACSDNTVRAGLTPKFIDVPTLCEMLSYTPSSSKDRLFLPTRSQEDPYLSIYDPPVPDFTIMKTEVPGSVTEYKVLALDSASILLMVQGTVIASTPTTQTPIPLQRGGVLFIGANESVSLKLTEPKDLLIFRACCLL

[10] = target: 1-phosphatidylinositol 4,5-bisphosphate phosphodiesterase beta-3 (Homo sapiens, UniProt Q01970); test: Fluorescence-based biochemical high throughput dose response assay to identify inhibitors of phospholipase C isozymes (PLC-B3).
[11] = target: 1-phosphatidylinositol 4,5-bisphosphate phosphodiesterase gamma-1 (Homo sapiens, UniProt P19174); test: Counterscreen for inhibitors of phospholipase C isozymes (PLC-B3): Fluorescence-based biochemical high throughput dose response assay to identify inhibitors of phospholipase C isozymes (PLC-gamma1).
[12] = target: Cytochrome P450 2C9 (Homo sapiens, UniProt P11712)
[13] = target: Cytochrome P450 2D6 (Homo sapiens, UniProt P10635);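 further: CYP2D6 member of a cytochrome P450 panel assay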
[14] = target: Cytochrome P450 3A4 (Homo sapiens, UniProt P08684);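 further: CYP3A4 tested as one member of a cytochrome P450 panel screen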
[15] = target: T5, Nuclear receptor subfamily 0 group B member 1 (Homo sapiens, UniProt P51843); type: functional, cell-based;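 further: HEK293T cells transfected with SF-1 and DAX-1 plus StAR promoter luciferase reporter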
T5 sequence (P51843 whole entry): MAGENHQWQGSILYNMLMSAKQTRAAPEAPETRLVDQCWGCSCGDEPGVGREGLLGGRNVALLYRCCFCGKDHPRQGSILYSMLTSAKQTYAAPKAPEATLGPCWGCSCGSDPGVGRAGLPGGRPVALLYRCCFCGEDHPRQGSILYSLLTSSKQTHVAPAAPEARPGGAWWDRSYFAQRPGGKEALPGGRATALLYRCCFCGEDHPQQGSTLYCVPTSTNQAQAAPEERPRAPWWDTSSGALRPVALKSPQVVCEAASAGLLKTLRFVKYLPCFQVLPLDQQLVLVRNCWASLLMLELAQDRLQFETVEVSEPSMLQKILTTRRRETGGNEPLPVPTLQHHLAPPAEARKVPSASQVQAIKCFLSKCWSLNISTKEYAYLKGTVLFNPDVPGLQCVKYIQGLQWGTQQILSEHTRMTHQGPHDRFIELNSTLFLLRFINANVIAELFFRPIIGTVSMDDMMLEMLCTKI

[16] = cells; type: functional, cell-based; remark: listed apart in the source
[17] = viability loss in MITF-independent A375 cells – cell-based, CellTiter-Glo luminescence, dry powder, set 2, counter-screen for MITF inhibitor project, dose response (AID 624489); type: functional; conditions: A-375;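 further: actives are compounds lowering A375 viability meaning general cytotoxicity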
[18] = cytotoxicity in MITF-independent A375 cells – cell-based, CellTiter-Glo luminescence, dry powder, set 4, counter-screen for MITF inhibitor project, dose response (AID 624364); type: functional; conditions: A-375;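 further: A375 melanoma cells are MITF independent so this is a counter screen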
[19] = general mammalian cell viability loss – inhibitor set, cherry-pick, set 2, cytotoxicity control for miR-122 modulator project, dose response (AID 720697); type: functional, cell-based
[20] = activation of miR-122 Renilla sensor silencing – cell-based, Huh7 psiCHECK-miR122, Renilla luciferase, cherry-picked, dose response (AID 651956); type: functional;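 further: huh7 hepatoma cells stably carrying a psiCHECK-2 miR-122 sensor plasmid; renilla luciferase signal reporting endogenous miR-122 activity after 48 h compound exposure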
[21] = target: Beta-galactosidase (Escherichia coli, UniProt Q8VNN2); test: Dose response counterscreen for EBI2 assay utilizing the enzyme, b-galactosidase.; type: functional
[22] = target: Paired box protein Pax-8 (Homo sapiens, UniProt Q06710); test: PAX8 transcriptional activity inhibition in RMG-I – RMG-I cells, luciferase, cherry-pick, dose response (AID 687027); type: functional, cell-based;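 further: luciferase reporter driven by Pax8 target thyroperoxidase promoter measured by SteadyGlo luminescence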
[23] = general cell-killing toxicity readout – plate reader, dry powder samples, cytotoxicity control for PAX8 inhibitor project, dose response (AID 743021); type: functional, cell-based
[24] = target: T6, Small ubiquitin-related modifier 1 (Homo sapiens, UniProt P63165); test: SUMO1 protein-protein binding blockers, potency – biochemical, FRET, dose response (AID 624383); type: functional; conditions: read-out: IC50_Mean
[25] = target: Tyrosyl-DNA phosphodiesterase 2 (Homo sapiens, UniProt O95551); test: potency against TDP2 phosphodiesterase activity – biochemical, epi absorbance, IC50, dose response (AID 743297)
[26] = target: T6, Small ubiquitin-related modifier 1; test: SUMO1 protein interaction blockers, potency – biochemical, fluorescence polarization, uHTS hits, dose response (AID 624382); type: functional; conditions: read-out: IC50_Mean

Chain of Beta-galactosidase (Q8VNN2 whole entry): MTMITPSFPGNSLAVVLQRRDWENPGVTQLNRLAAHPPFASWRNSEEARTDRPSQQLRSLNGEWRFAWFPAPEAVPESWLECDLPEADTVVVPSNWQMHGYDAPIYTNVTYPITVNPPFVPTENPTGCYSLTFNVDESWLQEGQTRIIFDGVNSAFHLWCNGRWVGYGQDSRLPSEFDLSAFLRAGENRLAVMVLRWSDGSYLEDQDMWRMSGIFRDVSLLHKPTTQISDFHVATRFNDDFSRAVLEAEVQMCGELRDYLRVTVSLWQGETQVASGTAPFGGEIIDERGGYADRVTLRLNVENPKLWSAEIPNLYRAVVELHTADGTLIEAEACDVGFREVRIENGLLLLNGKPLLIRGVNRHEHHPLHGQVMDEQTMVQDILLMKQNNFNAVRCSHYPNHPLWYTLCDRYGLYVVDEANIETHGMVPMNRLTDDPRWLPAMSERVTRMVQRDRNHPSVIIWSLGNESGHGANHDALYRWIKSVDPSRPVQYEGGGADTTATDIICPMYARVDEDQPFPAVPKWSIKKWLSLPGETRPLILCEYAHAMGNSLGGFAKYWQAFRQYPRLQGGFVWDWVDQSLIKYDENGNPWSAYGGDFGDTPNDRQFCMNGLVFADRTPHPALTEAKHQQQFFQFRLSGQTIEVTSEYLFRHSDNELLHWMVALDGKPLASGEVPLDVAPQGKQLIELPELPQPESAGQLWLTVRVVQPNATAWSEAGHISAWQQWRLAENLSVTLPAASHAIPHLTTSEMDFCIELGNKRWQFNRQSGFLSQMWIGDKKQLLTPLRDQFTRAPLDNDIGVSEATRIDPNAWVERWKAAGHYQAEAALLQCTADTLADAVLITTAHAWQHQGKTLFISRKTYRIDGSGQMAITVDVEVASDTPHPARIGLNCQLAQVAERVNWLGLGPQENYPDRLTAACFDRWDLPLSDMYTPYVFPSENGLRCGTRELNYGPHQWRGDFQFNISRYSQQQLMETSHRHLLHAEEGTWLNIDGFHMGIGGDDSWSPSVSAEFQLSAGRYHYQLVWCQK
Chain of 1-phosphatidylinositol 4,5-bisphosphate phosphodiesterase gamma-1 (P19174 whole entry): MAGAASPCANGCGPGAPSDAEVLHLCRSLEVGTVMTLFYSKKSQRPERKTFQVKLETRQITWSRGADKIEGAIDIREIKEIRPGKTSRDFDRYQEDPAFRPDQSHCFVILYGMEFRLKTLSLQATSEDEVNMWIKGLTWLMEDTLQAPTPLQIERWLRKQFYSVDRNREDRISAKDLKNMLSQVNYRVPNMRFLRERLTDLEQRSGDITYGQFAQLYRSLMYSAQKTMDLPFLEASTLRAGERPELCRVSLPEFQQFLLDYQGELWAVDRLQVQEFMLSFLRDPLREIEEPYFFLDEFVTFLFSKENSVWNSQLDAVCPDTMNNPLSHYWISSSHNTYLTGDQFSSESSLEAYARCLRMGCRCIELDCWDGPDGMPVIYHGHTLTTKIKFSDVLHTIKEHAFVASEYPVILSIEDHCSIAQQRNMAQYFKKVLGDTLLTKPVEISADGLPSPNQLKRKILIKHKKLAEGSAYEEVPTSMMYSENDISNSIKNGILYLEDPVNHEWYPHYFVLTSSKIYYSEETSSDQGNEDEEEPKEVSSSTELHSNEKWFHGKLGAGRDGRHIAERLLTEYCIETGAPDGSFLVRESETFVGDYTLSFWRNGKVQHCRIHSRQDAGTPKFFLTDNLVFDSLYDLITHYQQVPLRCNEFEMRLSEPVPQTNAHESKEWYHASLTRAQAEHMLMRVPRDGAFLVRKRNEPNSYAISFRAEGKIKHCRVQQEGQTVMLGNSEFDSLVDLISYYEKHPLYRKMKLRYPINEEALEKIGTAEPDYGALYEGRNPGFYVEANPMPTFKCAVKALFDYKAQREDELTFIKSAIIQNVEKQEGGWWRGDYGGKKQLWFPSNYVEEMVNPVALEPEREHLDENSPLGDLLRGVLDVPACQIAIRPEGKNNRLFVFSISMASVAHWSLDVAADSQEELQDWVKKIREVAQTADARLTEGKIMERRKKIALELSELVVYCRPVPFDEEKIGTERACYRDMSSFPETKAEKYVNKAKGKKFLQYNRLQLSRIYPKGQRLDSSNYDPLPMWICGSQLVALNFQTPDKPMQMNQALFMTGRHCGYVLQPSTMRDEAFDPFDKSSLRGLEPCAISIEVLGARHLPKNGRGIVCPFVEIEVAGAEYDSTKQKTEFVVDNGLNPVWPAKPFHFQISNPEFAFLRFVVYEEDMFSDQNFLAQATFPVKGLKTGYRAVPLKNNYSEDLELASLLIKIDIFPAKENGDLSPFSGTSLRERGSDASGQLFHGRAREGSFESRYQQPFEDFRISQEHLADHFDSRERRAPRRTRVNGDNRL
Chain of 1-phosphatidylinositol 4,5-bisphosphate phosphodiesterase beta-3 (Q01970 whole entry): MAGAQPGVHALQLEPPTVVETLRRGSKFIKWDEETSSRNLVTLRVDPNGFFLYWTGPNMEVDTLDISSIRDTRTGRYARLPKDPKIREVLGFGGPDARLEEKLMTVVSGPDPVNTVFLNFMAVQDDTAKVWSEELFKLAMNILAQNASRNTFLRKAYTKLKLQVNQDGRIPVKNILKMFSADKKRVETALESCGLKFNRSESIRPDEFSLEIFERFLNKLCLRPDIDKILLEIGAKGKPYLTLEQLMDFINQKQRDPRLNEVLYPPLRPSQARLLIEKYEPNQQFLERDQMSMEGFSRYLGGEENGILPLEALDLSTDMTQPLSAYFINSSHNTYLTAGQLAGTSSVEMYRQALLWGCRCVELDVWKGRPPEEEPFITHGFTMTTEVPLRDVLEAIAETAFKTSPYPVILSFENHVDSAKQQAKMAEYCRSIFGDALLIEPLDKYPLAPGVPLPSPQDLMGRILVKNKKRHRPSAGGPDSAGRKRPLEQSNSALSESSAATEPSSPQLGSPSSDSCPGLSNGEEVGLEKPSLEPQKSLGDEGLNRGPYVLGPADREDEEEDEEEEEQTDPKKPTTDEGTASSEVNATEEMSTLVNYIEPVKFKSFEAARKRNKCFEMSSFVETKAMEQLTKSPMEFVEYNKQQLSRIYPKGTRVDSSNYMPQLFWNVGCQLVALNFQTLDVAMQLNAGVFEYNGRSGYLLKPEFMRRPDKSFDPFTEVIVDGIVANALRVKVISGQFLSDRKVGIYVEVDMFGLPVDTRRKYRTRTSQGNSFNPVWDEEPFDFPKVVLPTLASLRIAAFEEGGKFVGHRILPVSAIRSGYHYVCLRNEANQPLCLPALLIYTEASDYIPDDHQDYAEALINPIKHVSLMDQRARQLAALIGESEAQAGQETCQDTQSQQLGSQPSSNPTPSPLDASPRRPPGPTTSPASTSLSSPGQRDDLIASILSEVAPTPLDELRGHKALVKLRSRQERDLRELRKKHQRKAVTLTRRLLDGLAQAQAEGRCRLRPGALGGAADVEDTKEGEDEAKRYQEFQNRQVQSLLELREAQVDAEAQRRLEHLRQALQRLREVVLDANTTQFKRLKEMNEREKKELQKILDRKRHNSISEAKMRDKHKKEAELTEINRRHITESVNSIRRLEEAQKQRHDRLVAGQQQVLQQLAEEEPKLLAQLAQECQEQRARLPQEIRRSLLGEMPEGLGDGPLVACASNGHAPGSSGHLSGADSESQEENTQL
T6 sequence (P63165 whole entry): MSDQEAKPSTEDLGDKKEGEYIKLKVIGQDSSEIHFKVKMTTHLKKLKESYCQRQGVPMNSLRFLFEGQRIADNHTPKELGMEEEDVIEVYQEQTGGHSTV
Chain of Large T antigen (P03070 whole entry): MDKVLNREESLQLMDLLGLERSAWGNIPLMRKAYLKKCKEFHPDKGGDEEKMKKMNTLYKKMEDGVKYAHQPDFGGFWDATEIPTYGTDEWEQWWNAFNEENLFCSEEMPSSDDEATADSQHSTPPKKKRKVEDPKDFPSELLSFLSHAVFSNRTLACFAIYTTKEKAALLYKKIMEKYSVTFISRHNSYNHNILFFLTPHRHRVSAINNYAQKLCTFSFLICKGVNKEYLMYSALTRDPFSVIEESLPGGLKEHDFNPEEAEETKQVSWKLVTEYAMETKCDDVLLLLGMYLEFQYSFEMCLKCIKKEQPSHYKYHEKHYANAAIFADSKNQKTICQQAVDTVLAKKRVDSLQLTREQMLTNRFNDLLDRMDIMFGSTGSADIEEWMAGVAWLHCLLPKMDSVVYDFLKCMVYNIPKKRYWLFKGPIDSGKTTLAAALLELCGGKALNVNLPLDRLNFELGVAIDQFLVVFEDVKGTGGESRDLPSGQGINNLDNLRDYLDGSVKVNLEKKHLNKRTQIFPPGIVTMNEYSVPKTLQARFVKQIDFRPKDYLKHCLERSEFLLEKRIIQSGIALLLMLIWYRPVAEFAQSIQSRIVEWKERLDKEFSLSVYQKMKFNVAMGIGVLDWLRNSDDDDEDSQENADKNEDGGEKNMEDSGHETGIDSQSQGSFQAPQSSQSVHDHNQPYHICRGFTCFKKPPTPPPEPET
Chain of Paired box protein Pax-8 (Q06710 whole entry): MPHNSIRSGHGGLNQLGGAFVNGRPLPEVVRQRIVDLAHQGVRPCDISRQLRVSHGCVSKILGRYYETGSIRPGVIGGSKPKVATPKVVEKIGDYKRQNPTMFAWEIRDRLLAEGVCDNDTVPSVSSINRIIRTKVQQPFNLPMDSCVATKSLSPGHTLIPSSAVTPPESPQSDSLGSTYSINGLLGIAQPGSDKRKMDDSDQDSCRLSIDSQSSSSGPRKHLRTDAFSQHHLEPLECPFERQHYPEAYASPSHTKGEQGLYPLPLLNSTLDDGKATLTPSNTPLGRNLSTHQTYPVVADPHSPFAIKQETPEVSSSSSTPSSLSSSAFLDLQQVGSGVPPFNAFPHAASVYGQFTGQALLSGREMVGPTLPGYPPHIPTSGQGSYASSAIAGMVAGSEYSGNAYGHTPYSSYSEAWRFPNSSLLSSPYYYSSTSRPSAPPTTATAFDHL

CCOC(=O)c1cc(S(=O)(=O)N2CCc3ccccc32)cn1C
AC50 [1]: 17.9 µM (active)
EC50 [2]: > 195 µM (not active)

COc1ccc(OCC(=O)N2CCc3ccccc3C2)cc1
IC50 [3]: > 29.9 µM (inactive)
EC50 [4]: > 29.9 µM (inactive)

Oc1ccc(/C=N/Nc2cc(N3CCOCC3)nc(N3CCOCC3)n2)cc1O
AC50 [5]: 7.86 µM (active)
IC50 [6]: 52.1 µM (active)
IC50 [7]: 23.1 µM (active)
CC50 [8]: 100 µM (active)
IC50 [9]: 28.9 µM (active)

CC1NC(C)c2c(ccc3ccccc23)O1 (centres undefined)
IC50 [3]: > 29.9 µM (inactive)
EC50 [4]: > 29.9 µM (inactive)
IC50 [6]: 114 µM (active)

COc1ccc(CS(=O)(=O)c2nnc[nH]2)cc1
IC50 [10]: > 123 µM (inactive)
IC50 [11]: 15.5 µM (inactive)

O=c1cc(-c2ccccc2)oc2cc(O)cc(O)c12 [CHRYSIN]
AC50 [12]: 5.01 µM (inconclusive)
AC50 [13]: 12.6 µM (inconclusive)
AC50 [14]: 3.16 µM (inconclusive)
IC50 [15]: > 67.6 µM (inactive)
IC50 [16]: > 67.6 µM (inactive)

CC(=O)NC1=C(c2ccc(Cl)cc2)C(=O)c2ccccc2C1=O
AC50 [17]: 9.22 µM (active)
AC50 [18]: 12.4 µM (active)

O=C1Cc2c([nH]c3ccc(Br)cc23)-c2ccccc2N1 [KENPAULLONE]
IC50 [15]: > 0.834 µM (active)
IC50 [16]: > 67.5 µM (inactive)

CNc1nc(NCCOc2ccccc2)c2sccc2n1
AC50 [19]: 4.2 µM (active)
AC50 [20]: 38.3 µM (active)

CCOC(=O)N1CCN(C(=O)c2cc3cc(Cl)ccc3[nH]2)CC1
IC50 [21]: > 80 µM (inactive)

COc1cc(NS(=O)(=O)c2ccc(NC(=O)CN3C(=O)c4ccccc4C3=O)cc2)nc(OC)n1
IC50 [10]: > 122 µM (inactive)
IC50 [11]: > 122 µM (inactive)

CCNC(=O)C[C@@H]1CC[C@@H]2[C@H](COc3ccc(NC(=O)Nc4cccc(Cl)c4)cc3C(=O)N2C)O1
AC50 [19]: < 0.195 µM (active)
AC50 [20]: 4.02 µM (active)

COC(=O)C1=C(C)N(Cc2ccc(C(F)(F)F)cc2)C(NCc2ccccc2)=NC1c1cccc(F)c1 (centres undefined)
AC50 [22]: 26.8 µM (active)
AC50 [23]: 23.4 µM (active)

C=CCNC1=C(N2CCSCC2)C(=O)c2ccccc2C1=O
AC50 [17]: 8.56 µM (active)
AC50 [18]: 24.3 µM (active)

CCC(CO)Oc1cc(NC(=O)c2cccc(OC)c2)c2ncn(C(C)C)c2c1 (centres undefined)
IC50 [24]: 12.7 µM (active)
IC50 [25]: 36.6 µM (inactive)
IC50 [26]: > 66.6 µM (inactive)

COc1ccc(C(=O)NCCNc2nc3c(C)cccc3cc2C#N)cc1OC
AC50 [1]: 25.7 µM (active)

CCN1CCN(C(=O)/C=C/c2ccc(OC)cc2)CC1
IC50 [21]: > 80 µM (inactive)
